± gives the uncertainty stated by the source.
Assay: xn = mol fraction of the nth substance listed

CCCC[n+]1ccn(C)c1.COS(=O)(=O)[O-] + CCCC[n+]1ccn(C)c1.F[B-](F)(F)F
101 kPa
Settings | viscosity [mPa·s]
298.15 K, x2 = 0.4358 | 161.7 ± 6.9
298.15 K, x2 = 0.5118 | 158.9 ± 6.4
298.15 K, x2 = 0.6026 | 146.2 ± 5.5
298.15 K, x2 = 0.9447 | 110.8 ± 3.4
299.15 K, x2 = 0 | 202.9 ± 9.9
299.15 K, x2 = 0.1209 | 181.8 ± 8.2
301.15 K, x2 = 0.1209 | 162.8 ± 6.8
301.15 K, x2 = 0.2142 | 158.7 ± 6.5
301.15 K, x2 = 0.4358 | 136.4 ± 4.9
301.15 K, x2 = 0.6934 | 117 ± 3.6
301.15 K, x2 = 0.7813 | 109.5 ± 3.2
302.15 K, x2 = 0 | 171.4 ± 7.4
302.15 K, x2 = 0.3057 | 144.1 ± 5.4
302.15 K, x2 = 0.5412 | 122.2 ± 3.9
302.15 K, x2 = 0.6026 | 117.5 ± 3.7
302.15 K, x2 = 0.648 | 113.8 ± 3.4
303.15 K, x2 = 0.406 | 127.9 ± 4.3
303.15 K, x2 = 0.5118 | 118.6 ± 3.7
304.15 K, x2 = 0.3057 | 129.6 ± 4.4
304.15 K, x2 = 0.5412 | 109.7 ± 3.2
304.15 K, x2 = 0.6934 | 99.9 ± 2.6
305.15 K, x2 = 0.1209 | 131.1 ± 4.5
305.15 K, x2 = 0.2142 | 127.8 ± 4.3
305.15 K, x2 = 0.6026 | 100.3 ± 2.6
305.15 K, x2 = 0.9005 | 82.8 ± 1.7
305.15 K, x2 = 0.9447 | 78.2 ± 1.6
307.15 K, x2 = 0.4358 | 99.4 ± 2.6
307.15 K, x2 = 0.6026 | 90.9 ± 2.2
308.15 K, x2 = 0.1209 | 112.4 ± 3.2
308.15 K, x2 = 0.406 | 98.7 ± 2.7
308.15 K, x2 = 0.9447 | 68 ± 1.1

NCCO + CCCC[n+]1ccn(C)c1.F[P-](F)(F)(F)(F)F
101 kPa, x1 = 1
Settings | electrical conductivity [S/m] | viscosity [mPa·s]
288.15 K | 0.00163 ± 1e-05 | 31 ± 12
293.15 K | 0.00189 ± 1e-05 | 23.7 ± 9.5
298.15 K | 0.00227 ± 1e-05 | –
303.15 K | 0.00272 ± 1e-05 | –
308.15 K | 0.00321 ± 1e-05 | –
313.15 K | 0.00357 ± 1e-05 | –
318.15 K | 0.00622 ± 1e-05 | 8.1 ± 3.2
323.15 K | 0.00689 ± 1e-05 | –

CCCC[n+]1ccn(C)c1.N#C[C-](C#N)C#N + CCCC[n+]1ccn(C)c1.O=S(=O)([N-]S(=O)(=O)C(F)(F)F)C(F)(F)F
viscosity [mPa·s], 100 kPa
Settings | x2 = 0 | x2 = 0.252 | x2 = 0.501 | x2 = 0.751
283.15 K | 58.2 ± 3 | 65.9 ± 3.4 | 77.3 ± 3.9 | 88.9 ± 4.5
288.15 K | 44.5 ± 2.3 | 50.6 ± 2.6 | 59.4 ± 3 | 68.5 ± 3.5
293.15 K | 34.9 ± 1.8 | 39.8 ± 2 | 46.8 ± 2.4 | 53.9 ± 2.7
298.15 K | 28 ± 1.4 | 31.9 ± 1.6 | 37.6 ± 1.9 | 43.1 ± 2.2
303.15 K | 22.9 ± 1.2 | 26.1 ± 1.3 | 30.7 ± 1.6 | 35.2 ± 1.8
308.15 K | 18.98 ± 0.97 | 21.6 ± 1.1 | 25.4 ± 1.3 | 29.1 ± 1.5
313.15 K | 15.99 ± 0.82 | 18.22 ± 0.93 | 21.4 ± 1.1 | 24.4 ± 1.2
318.15 K | 13.66 ± 0.7 | 15.53 ± 0.79 | 18.22 ± 0.92 | 20.7 ± 1
323.15 K | 11.8 ± 0.6 | 13.39 ± 0.68 | 15.72 ± 0.8 | 17.75 ± 0.9
328.15 K | 10.29 ± 0.53 | 11.66 ± 0.59 | 13.61 ± 0.69 | 15.38 ± 0.78
333.15 K | 9.06 ± 0.46 | 10.25 ± 0.52 | 11.9 ± 0.6 | 13.44 ± 0.68
338.15 K | 8.04 ± 0.41 | 9.08 ± 0.46 | 10.54 ± 0.53 | 11.84 ± 0.6
343.15 K | 7.19 ± 0.37 | 8.1 ± 0.41 | 9.38 ± 0.48 | 10.5 ± 0.53
348.15 K | 6.47 ± 0.33 | 7.27 ± 0.37 | 8.42 ± 0.43 | 9.39 ± 0.47
353.15 K | 5.86 ± 0.3 | 6.57 ± 0.33 | 7.55 ± 0.38 | 8.44 ± 0.43
358.15 K | 5.34 ± 0.27 | 5.97 ± 0.3 | 6.86 ± 0.35 | 7.62 ± 0.38
363.15 K | 4.88 ± 0.25 | 5.46 ± 0.28 | 6.29 ± 0.32 | 6.93 ± 0.35

NCCO + CCCC[n+]1ccn(C)c1.O=[N+]([O-])[O-] + O
Settings | viscosity [mPa·s]
313 K, 100 kPa, x2 = 0, x3 = 0.8878 | 1.963 ± 0.05

CC[n+]1ccn(C)c1.COS(=O)(=O)[O-] + CCCO
viscosity [mPa·s], 101 kPa
Settings | 283.15 K | 293.15 K | 303.15 K | 313.15 K | 323.15 K
x1 = 0.0562 | 3.83 ± 0.07 | 3 ± 0.07 | 2.38 ± 0.07 | 1.93 ± 0.07 | 1.58 ± 0.07
x1 = 0.1123 | 5.02 ± 0.08 | 3.88 ± 0.07 | 3.06 ± 0.07 | 2.47 ± 0.07 | 2.02 ± 0.07
x1 = 0.2201 | 8.55 ± 0.1 | 6.43 ± 0.09 | 4.9 ± 0.08 | 3.82 ± 0.07 | 3.15 ± 0.07
x1 = 0.3272 | 12.73 ± 0.44 | 9.53 ± 0.1 | 7.27 ± 0.09 | 5.71 ± 0.08 | 4.62 ± 0.08
x1 = 0.4282 | 19.32 ± 0.46 | 14.17 ± 0.44 | 10.7 ± 0.44 | 8.3 ± 0.1 | 6.6 ± 0.09
x1 = 0.5272 | 29.1 ± 0.49 | 20.65 ± 0.46 | 15.24 ± 0.45 | 11.61 ± 0.44 | 9.06 ± 0.1
x1 = 0.6285 | 40.72 ± 0.55 | 27.29 ± 0.48 | 19.7 ± 0.46 | 14.77 ± 0.45 | 11.43 ± 0.44
x1 = 0.7255 | 56.5 ± 1.9 | 37.58 ± 0.53 | 27.45 ± 0.49 | 20.14 ± 0.46 | 15.3 ± 0.45
x1 = 0.8203 | 82.4 ± 2.3 | 52.7 ± 1.9 | 35.86 ± 0.53 | 26.65 ± 0.48 | 19.78 ± 0.46
x1 = 0.9091 | 104.9 ± 3.1 | 63.6 ± 2 | 42.77 ± 0.57 | 30.19 ± 0.5 | 22.2 ± 0.47
x1 = 0.954 | 127.2 ± 4.2 | 77 ± 2.2 | 50.3 ± 1.9 | 35.02 ± 0.53 | 25.63 ± 0.48
x1 = 1 | 141 ± 5 | 84.1 ± 2.4 | 57.9 ± 2 | 39.54 ± 0.55 | 28.33 ± 0.49

CC[n+]1ccn(CCOC)c1.O=S(=O)([O-])C(F)(F)F + CCCO
viscosity [mPa·s], 101 kPa
Settings | x1 = 0.0987 | x1 = 0.1999 | x1 = 0.2982 | x1 = 0.3994 | x1 = 0.499 | x1 = 0.599 | x1 = 0.698 | x1 = 0.801 | x1 = 0.899 | x1 = 1
288.15 K | 4.257 ± 0.098 | 6.11 ± 0.17 | 10 ± 0.32 | 14.17 ± 0.61 | 23.2 ± 1 | 31.9 ± 1.1 | 45.2 ± 1.4 | 63.3 ± 1.8 | 88.6 ± 2.7 | 121 ± 4.5
293.15 K | 3.751 ± 0.084 | 4.78 ± 0.14 | 8.54 ± 0.29 | 12.17 ± 0.5 | 19.23 ± 0.83 | 26.22 ± 0.93 | 36.7 ± 1.1 | 50.5 ± 1.4 | 69.1 ± 1.9 | 92.5 ± 2.9
298.15 K | 3.282 ± 0.073 | 4.18 ± 0.12 | 7.36 ± 0.25 | 10.61 ± 0.42 | 16.22 ± 0.67 | 21.94 ± 0.76 | 30.16 ± 0.92 | 41 ± 1.1 | 55.3 ± 1.4 | 72.5 ± 2
303.15 K | 2.914 ± 0.065 | 3.72 ± 0.11 | 6.41 ± 0.22 | 9.35 ± 0.34 | 13.09 ± 0.55 | 18.61 ± 0.65 | 25.17 ± 0.75 | 33.69 ± 0.91 | 44.8 ± 1.2 | 57.9 ± 1.5
308.15 K | 2.594 ± 0.059 | 3.59 ± 0.098 | 5.63 ± 0.19 | 8.33 ± 0.29 | 11.23 ± 0.46 | 15.98 ± 0.55 | 21.29 ± 0.62 | 28.1 ± 0.75 | 36.86 ± 0.95 | 47.3 ± 1.2
313.15 K | 2.321 ± 0.053 | 3.205 ± 0.087 | 4.98 ± 0.17 | 7.49 ± 0.26 | 10.09 ± 0.39 | 13.81 ± 0.46 | 18.34 ± 0.53 | 23.8 ± 0.63 | 30.74 ± 0.79 | 39 ± 1
318.15 K | 2.086 ± 0.048 | 3.097 ± 0.081 | 4.43 ± 0.15 | 6.8 ± 0.22 | 8.6 ± 0.32 | 12 ± 0.4 | 15.84 ± 0.45 | 20.29 ± 0.54 | 25.97 ± 0.67 | 32.59 ± 0.85

CCC[N+]1(C)CCCC1.N#C[N-]C#N + CCC[N+]1(C)CCCC1.O=S(=O)([N-]S(=O)(=O)C(F)(F)F)C(F)(F)F
333.15 K, 101 kPa
Settings | electrical conductivity [S/m] | viscosity [mPa·s]
x1 = 0.25 | 1.38 ± 0.14 | 16.8 ± 1.7
x1 = 0.75 | 2.72 ± 0.27 | 13.2 ± 1.4

— the CheMixHub ionic liquid set
